What was measured:
[1] = biological target: human SLC-1 (Homo sapiens, UniProt Q99705); assay: MCH receptor antagonistic activity (inhibitory activity, Experimental Example 1); assay type: biochemical
[2] = biological target: rat SLC-1 (Rattus norvegicus, UniProt P97639); assay: as above; assay type: biochemical
rat SLC-1, sequence (P97639 whole entry): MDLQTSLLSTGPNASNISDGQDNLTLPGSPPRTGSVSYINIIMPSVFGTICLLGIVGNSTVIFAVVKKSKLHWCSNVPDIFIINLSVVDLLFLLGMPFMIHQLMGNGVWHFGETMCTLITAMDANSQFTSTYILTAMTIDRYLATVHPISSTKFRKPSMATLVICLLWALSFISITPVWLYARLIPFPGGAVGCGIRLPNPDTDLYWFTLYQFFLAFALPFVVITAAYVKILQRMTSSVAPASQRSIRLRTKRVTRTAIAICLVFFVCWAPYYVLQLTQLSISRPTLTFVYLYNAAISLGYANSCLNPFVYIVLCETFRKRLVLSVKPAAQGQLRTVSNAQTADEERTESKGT

human SLC-1, sequence (Q99705 whole entry): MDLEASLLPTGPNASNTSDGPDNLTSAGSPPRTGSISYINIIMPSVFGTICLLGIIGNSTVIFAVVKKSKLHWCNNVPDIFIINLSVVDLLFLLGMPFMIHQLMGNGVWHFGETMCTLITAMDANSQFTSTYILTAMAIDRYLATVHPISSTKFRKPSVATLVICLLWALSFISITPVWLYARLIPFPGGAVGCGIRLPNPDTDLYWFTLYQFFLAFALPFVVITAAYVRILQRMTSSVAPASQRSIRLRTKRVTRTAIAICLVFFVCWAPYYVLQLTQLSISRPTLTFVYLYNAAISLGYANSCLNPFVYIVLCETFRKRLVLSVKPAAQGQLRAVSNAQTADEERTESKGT

`Cc1c(NC(=O)c2ccc(OC[C@@H]3CCCO3)cc2)ccc2cc(CN[C@H]3CCCC[C@@H]3O)cnc12` [Example 47, N-[3-({[(1S,2S)-2-hydroxycyclohexyl]amino}methyl)-8-methylquinolin-7-yl]-4-[(2S)-tetrahydrofuran-2-ylmethoxy]benzamide] gave an IC50 [1] of 6.8 nM, an IC50 [2] of 7.9 nM and a melting point of 157 to 158 °C.
With `Cc1c(NC(=O)c2ccc(OC[C@@H]3CCCO3)cc2)ccc2cc(CN[C@H]3CC[C@H](O)CC3)cnc12` [Example 48, N-(3-{[(trans-4-hydroxycyclohexyl)amino]methyl}-8-methylquinolin-7-yl)-4-[(2S)-tetrahydrofuran-2-ylmethoxy]benzamide] the IC50 [1] was 9.1 nM, the IC50 [2] was 8.3 nM and the melting point was 183 to 184 °C.
`Cc1c(NC(=O)c2ccc(OC[C@@H]3CCCO3)cc2)ccc2cc(CNCCOC(C)C)cnc12` [Example 49, N-[8-methyl-3-({[2-(1-methylethoxy)ethyl]amino}methyl)quinolin-7-yl]-4-[(2S)-tetrahydrofuran-2-ylmethoxy]benzamide] showed an IC50 [1] of 4.8 nM, an IC50 [2] of 7.2 nM and a melting point of 111 to 113 °C.
For `Cc1c(NC(=O)c2ccc(OC[C@@H]3CCCO3)cc2)ccc2cc(CN[C@H]3CC[C@@](C)(O)CC3)cnc12` [Example 52, N-(3-{[(cis-4-hydroxy-4-methylcyclohexyl)amino]methyl}-8-methylquinolin-7-yl)-4-[(2S)-tetrahydrofuran-2-ylmethoxy]benzamide], the IC50 [1] was 6.5 nM, the IC50 [2] was 9.5 nM and the melting point was 159 to 161 °C.
`CCC(CC)NCc1cnc2c(C)c(NC(=O)c3ccc(OC[C@@H]4CCCO4)cc3)ccc2c1` [Example 54, N-(3-{[(1-ethylpropyl)amino]methyl}-8-methylquinolin-7-yl)-4-[(2S)-tetrahydrofuran-2-ylmethoxy]benzamide] gave an IC50 [1] of 5.5 nM, an IC50 [2] of 6.1 nM and a melting point of 113 to 115 °C.
`CC[C@@H](C)NCc1cnc2c(C)c(NC(=O)c3ccc(OC[C@@H]4CCCO4)cc3)ccc2c1` [Example 55, N-[8-methyl-3-({[(1R)-1-methylpropyl]amino}methyl)quinolin-7-yl]-4-[(2S)-tetrahydrofuran-2-ylmethoxy]benzamide] showed an IC50 [1] of 6.8 nM, an IC50 [2] of 8.8 nM and a melting point of 118 to 119 °C.
In the case of `CC[C@H](C)NCc1cnc2c(C)c(NC(=O)c3ccc(OC[C@@H]4CCCO4)cc3)ccc2c1` [Example 56, N-[8-methyl-3-({[(1S)-1-methylpropyl]amino}methyl)quinolin-7-yl]-4-[(2S)-tetrahydrofuran-2-ylmethoxy]benzamide], the IC50 [1] was 6.4 nM, the IC50 [2] was 9.1 nM and the melting point was 122 to 123 °C.
For `Cc1c(NC(=O)c2ccc(OC[C@@H]3CCCO3)cc2)ccc2cc(CNC3CCC3)cnc12` [Example 57, N-{3-[(cyclobutylamino)methyl]-8-methylquinolin-7-yl}-4-[(2S)-tetrahydrofuran-2-ylmethoxy]benzamide], the IC50 [1] was 9.8 nM, the IC50 [2] was 17 nM and the melting point was 142 to 144 °C.
Molecule `Cc1c(NC(=O)c2ccc(OC[C@@H]3CCCO3)cc2)ccc2cc(CN[C@H](C)C(C)(C)C)cnc12` [Example 58, N-[8-methyl-3-({[(1R)-1,2,2-trimethylpropyl]amino}methyl)quinolin-7-yl]-4-[(2S)-tetrahydrofuran-2-ylmethoxy]benzamide] has an IC50 [1] of 6.8 nM, an IC50 [2] of 11 nM and a melting point of 140 to 141 °C.
`Cc1c(NC(=O)c2ccc(OCC3CCOC3)cc2)ccc2cc(CNCC(C)(C)C)cnc12` (stereo not drawn) [Example 62, N-(3-{[(2,2-dimethylpropyl)amino]methyl}-8-methylquinolin-7-yl)-4-(tetrahydrofuran-3-ylmethoxy)benzamide] showed an IC50 [1] of 2.2 nM, an IC50 [2] of 2.7 nM and a melting point of 129 °C.
For `Cc1c(NC(=O)c2ccc(OCC3CCOC3)cc2)ccc2cc(CNCC3CCOCC3)cnc12` (stereo not drawn) [Example 63, N-(8-methyl-3-{[(tetrahydro-2H-pyran-4-ylmethyl)amino]methyl}quinolin-7-yl)-4-(tetrahydrofuran-3-ylmethoxy)benzamide], the IC50 [1] was 3.7 nM, the IC50 [2] was 4.5 nM and the melting point was 122 to 123 °C.
For `Cc1c(NC(=O)c2ccc(OC[C@@H]3CCCO3)cc2F)ccc2cc(CNCC(C)(C)O)cnc12` [Example 67, 2-fluoro-N-(3-{[(2-hydroxy-2-methylpropyl)amino]methyl}-8-methylquinolin-7-yl)-4-[(2S)-tetrahydrofuran-2-ylmethoxy]benzamide], the IC50 [1] was 7.8 nM, the IC50 [2] was 11 nM and the melting point was 167 to 168 °C.
For `Cc1c(NC(=O)c2ccc(OC[C@@H]3CCCO3)cc2F)ccc2cc(CNCC(C)(C)C)cnc12` [Example 68, N-(3-{[(2,2-dimethylpropyl)amino]methyl}-8-methylquinolin-7-yl)-2-fluoro-4-[(2S)-tetrahydrofuran-2-ylmethoxy]benzamide], the IC50 [1] was 3.1 nM, the IC50 [2] was 2.8 nM and the melting point was 134 to 135 °C.
For `Cc1c(NC(=O)c2ccc(OC[C@@H]3CCCO3)cc2F)ccc2cc(CN[C@H]3CC[C@](C)(O)CC3)cnc12` [Example 69, 2-fluoro-N-(3-{[(trans-4-hydroxy-4-methylcyclohexyl)amino]methyl}-8-methylquinolin-7-yl)-4-[(2S)-tetrahydrofuran-2-ylmethoxy]benzamide], the IC50 [1] was 6.1 nM, the IC50 [2] was 7.1 nM and the melting point was 171 to 172 °C.
For `Cc1c(NC(=O)c2ccc(OC[C@@H]3CCCO3)cc2F)ccc2cc(CNCC(C)C)cnc12` [Example 70, 2-fluoro-N-(8-methyl-3-{[(2-methylpropyl)amino]methyl}quinolin-7-yl)-4-[(2S)-tetrahydrofuran-2-ylmethoxy]benzamide], the IC50 [1] was 2.7 nM, the IC50 [2] was 3.2 nM and the melting point was 133 to 134 °C.
Molecule `CCCNCc1cnc2c(C)c(NC(=O)c3ccc(OC[C@@H]4CCCO4)cc3F)ccc2c1` [Example 71, 2-fluoro-N-{8-methyl-3-[(propylamino)methyl]quinolin-7-yl}-4-[(2S)-tetrahydrofuran-2-ylmethoxy]benzamide] has an IC50 [1] of 5 nM, an IC50 [2] of 8 nM and a melting point of 120 to 121 °C.
`Cc1c(NC(=O)c2ccc(OC[C@@H]3CCCO3)cc2)ccc2cc(CN3CCC(C)(O)CC3)cnc12` [Example 72, N-{3-[(4-hydroxy-4-methylpiperidin-1-yl)methyl]-8-methylquinolin-7-yl}-4-[(2S)-tetrahydrofuran-2-ylmethoxy]benzamide] showed an IC50 [1] of 4.5 nM, an IC50 [2] of 4.3 nM and a melting point of 169 to 174 °C.

Source: patent US8383647B2, “Quinoline derivative” (Takeda Pharmaceutical Company Limited, priority 2009, dated 2013)
